Laboratory results taken from patent US20220273658A1, “SMALL MOLECULE LIVER X RECEPTOR MODULATORS AND USES THEREOF” (University of Houston System, priority 2019, published 2022).
Values belong to the compound of their own block, whether it stands above or below them.

How the values were obtained:
[1] = tested on: BxPC-3, Mia-PaCa-2, and PANC-1; assay: cell proliferation, live cells quantified by trypan blue exclusion; format: cell-based, human; conditions: increasing GW3965 concentrations; all three cell lines
Experimental: (§1) To determine the effects of LXR ligands on PDAC cell proliferation, cells were treated with synthetic LXR agonist GW3965 and live cells were quantified using trypan blue exclusion assays. […] FIGS. 8A, 8B, and 8C show dose-dependent decreases in cell proliferation in BxPC-3, Mia-PaCa-2, and PANC-1, respectively upon treatment with increasing GW3965 concentrations. […] Clonogenic assays were also employed to evaluate the effects of long-term LXR ligand treatment on cell proliferation and colony formation. […] These findings indicate that LXRs are involved in PDAC cell proliferation and targeting LXRs with ligands perturb their normal functions in cell proliferation.

PDAC cell lines [2] = assay: tetrazolium salt reduction (WST) assay in PDAC cell lines; format: cell-based, human; conditions: GW3965, WST assay
Experimental: as §1
(§2) The initial identification and subsequent characterization of the two novel LXR ligands and their derivative compounds was carried out in screens in three human pancreatic cancer cell and one non-transformed human pancreatic epithelial cell line in three or more replicate experiments for each cell line using the WST tetrazolium salt reduction assays.

PDAC cell lines [3] = assay: MTS assay of overall cell metabolic rate; format: cell-based, human; conditions: increasing concentrations of GW3965
PDAC cell lines [4] = assay: clonogenic assay, colony formation; format: cell-based, human; conditions: long-term treatment, each cell line
Experimental: as §1

BxPC-3-luc2 cells = assay: orthotopic xenograft mouse model of pancreatic cancer; format: in vivo
Text: Data from studies using cultured cancer cell lines indicate that LXR agonists have anti-proliferative effects on PDAC cells by disrupting cell cycle progression and expression of key regulatory proteins and growth pathways. To determine the effects of ligands in vivo using a live imaging system, BxPC-3 cells engineered with […] firefly luciferase gene (BxPC-3-luc2) were obtained from a commercial source (Perkin Elmer) and then validated for luciferase expression and response to GW3965 treatment in culture. […] NCr athymic nude mice (n=5 per treatment group) were orthotopically injected with BxPC-3-luc2 cells and then gavaged daily with GW3965 dissolved in 0.5% methylcellulose or vehicle only. Animals were anesthetized, injected with luciferin, and imaged weekly to monitor and quantify tumor growth. […] Experiments were terminated after two weeks due to the morbidity associated with the tumor burden in test animals. […] Statistically significant differences in additive effects as compared to single compound treatments are denoted with asterisks.

[5] = tested on: LXR target genes SREBF1c, ABCA1, and ABCG1; assay: expression of LXR target genes in pancreatic cancer cell lines; format: cell-based, human; conditions: for expression of LXR target genes: three pancreatic cancer cell lines
Text: To characterize the activity of the newly discovered ligands, the expression of LXR target genes SREBF1c, ABCA1, and ABCG1 was examined following treatment with vehicle, synthetic agonist GW3965, and Compounds 1E5 and 3A4. […] Basal expression of SREBF1c, the canonical LXR target gene involved in the regulation of glucose and lipid metabolism, was disrupted by the addition of novel LXR ligands, whereas their expression was induced following treatment with synthetic agonist GW3965 in all three pancreatic cancer cell lines tested, whereas the effects on ABCA1 and ABCG1 varied between the two novel ligands and across the cell lines.
(§3) To elucidate mechanisms of inverse agonism by the novel ligands, TR-FRET experiments were conducted to determine the effects of 1E5 and 3A4 on the recruitment of NR co-activators and co-repressors. […] In addition to their functions as inverse agonists, extended treatments with 1E5 and 3A4 also destabilized or decreased LXR proteins.

[6] = tested on: myeloid-derived suppressor cells (MDSCs); conditions: in vivo; cited from earlier work
[7] = pre-clinical testing; cited from earlier work
MDSC and CD8+ T-cells = conditions: in vivo; cited from earlier work
PDAC = PDAC patients; cited from earlier work
HPNE cells = assay: growth of non-transformed pancreatic epithelial cells (WST screen; FIG. 32D); format: cell-based, human; conditions: FIG. 32(D)
Experimental: as §2
(§4) The synthesis and characterization of KD-01-39, a derivative of 3A4, have not been described previously.

KPC tumor cells = assay: growth of KPC tumor cells from mouse model of PDAC; format: cell-based
Text: The effects of the ligands and derivatives on the growth of PDAC cells were further validated by cell counting and clonogenic assays.

[8] = tested on: LXR ligand-binding domain; assay: TR-FRET assay of co-activator and co-repressor peptide recruitment; format: biochemical
Experimental: as §3, §4

LXR-LBD = assay: differential scanning fluorimetry; format: binding
Text: as §4

PDAC cells [9] = assay: treatment of PDAC cells with KD-01-39 (FIG. 32); format: cell-based, human; conditions: all cancer lines tested
Text: as §4

PDAC cells [10] = assay: cell viability with glutaminase inhibitor BPTES and 1E5; format: cell-based, human; conditions: BPTES alone
Text: TCA cycle intermediates act as anaplerotic substrate for gluconeogenesis and lipogenesis. […] GOT2 converts glutamine-derived glutamate to alpha-KG. During this process oxaloacetate is converted to aspartate which is required to maintain redox homeostasis. Studies have shown that inhibition of GOT2 in PDAC promotes senescence.

SMILES: O=C(O)Cc1cccc(OCCCN(Cc2cccc(C(F)(F)F)c2Cl)CC(c2ccccc2)c2ccccc2)c1 [GW3965]
cell proliferation [1]: significantly inhibited
growth of PDAC cell lines (PDAC cell lines [2]): suppressed the growth of PDAC cell lines in a dose-dependent manner
overall metabolism (MTS) (PDAC cell lines [3]): dose-dependent drop in overall metabolism
colony formation (PDAC cell lines [4]): strongly inhibited colony formation
tumor growth (luciferase signal) (BxPC-3-luc2 cells; 40 mg/kg and 80 mg/kg, daily gavage, one and two weeks): reduced tumor growth
tumor size, post-mortem examination (BxPC-3-luc2 cells; control vs treated animals): significant differences in tumor size
bioavailability following ingestion (BxPC-3-luc2 cells; daily gavage): confirmed the bioavailability
toxicity following ingestion (BxPC-3-luc2 cells; mouse, in vivo): low toxicity
basal expression of SREBF1c ([5]; all three pancreatic cancer cell lines): induced
expression of LXR target genes [5]: increased target gene expression
anti-tumor effects of PD-1 inhibitor immunotherapy [6]: enhanced the anti-tumor effects of PD-1 inhibitor immunotherapy
recruitment and apoptosis of immunosuppressive MDSCs [6]: blocked the recruitment and increased apoptosis
circulating and liver triglyceride levels [7]: increased circulating and liver triglyceride levels

SMILES: O=S(=O)(c1ccccc1)N(CC(F)(F)F)c1ccc(C(O)(C(F)(F)F)C(F)(F)F)cc1 [Compound T0901317]
circulating and liver triglyceride levels [7]: increased circulating and liver triglyceride levels

SMILES: C[C@H](CCOc1cccc(CC(=O)O)c1)N(Cc1cccc(C(F)(F)F)c1Cl)CC(c1ccccc1)c1ccccc1 [RGX-104]
anti-tumor effects of PD-1 inhibitor immunotherapy [6]: enhanced the anti-tumor effects of PD-1 inhibitor immunotherapy
recruitment and apoptosis of immunosuppressive MDSCs [6]: blocked the recruitment and increased apoptosis

SMILES: Cc1cc(C)c(S(=O)(=O)N(CCc2cccc(Br)c2)Cc2ccc(-c3cccc(S(C)(=O)=O)c3)cc2)c(C)c1 [SR9243]
MDSC recruitment to tumors (MDSC and CD8+ T-cells): decreased MDSC recruitment to tumors
expansion and recruitment of tumor-killing CD8+ T-cells (MDSC and CD8+ T-cells): increased the expansion and recruitment

SMILES: Nc1ccn([C@@H]2O[C@H](CO)[C@@H](O)C2(F)F)c(=O)n1 [gemcitabine]
improvement of median survival (PDAC): approximately two weeks

effect on non-cancerous pancreatic HPNE cells (HPNE cells): minimal effect
efficacy against cancer lines compared with 3A4 (PDAC cells [9]): same or similar efficacy as 3A4
SMILES: COc1cc(OC)cc(C(=O)N2CCN(c3ccccc3Br)CC2)c1 [KD-01-39]
growth of KPC tumor cells (KPC tumor cells): inhibition of pancreatic cancer cells
expression of LXR target genes [5]: decreased the expression of LXR target genes
co-activator peptide binding to LXR ligand-binding domain ([8]; co-activator (D22) peptide): did not affect recruitment of co-activator peptides
binding of NCOR and SMRT co-repressor peptides ([8]; co-repressor (NCOR and SMRT-ID2) peptides): enhanced recruitment of NCOR and SMRT co-repressor peptides in a dosage dependent manner
LXR-LBD structure and dye dissociation with increasing temperature (LXR-LBD): disrupted the LBD structure

SMILES: O=C(Cc1ccccc1)Nc1nnc(CCSCCc2nnc(NC(=O)Cc3ccccc3)s2)s1 [BPTES, reference compound]
pancreatic cancer cell viability (PDAC cells [10]): reduced pancreatic cancer cell viability
